Consider eleven compounds from PubChem BioAssay AID624167 (Sanford-Burnham Center for Chemical Genomics, 2012).

A word on the IC50: it is the concentration that inhibits the measured activity by half.

A short description of test [1]: Peg3 promoter luciferase inhibitors, potency, dose response, cell-based, HeLa, CREF/GAPDH counter-screen panel (AID 624167). The following applies: CREF/GAPDH counter-screens; GAPDH; mean of runs. A general note: A counterscreen serves to expose hits that act by an unwanted route or on another target.
The subject of test [2] is PEG-3. Described as above. The following applies: HeLa PEG-Prom luciferase reporter, overnight, CREF/GAPDH counter-screens. In general terms: A reporter such as luciferase makes a cellular process visible.
The target in test [3] is PEG-3 (UniProt Q6IN02). The description is as above. The following applies: HeLa PEG-Prom luciferase reporter, overnight, CREF/GAPDH counter-screens, mean of runs.
PEG-3 (UniProt Q6IN02), sequence (Q6IN02 whole entry, looked up): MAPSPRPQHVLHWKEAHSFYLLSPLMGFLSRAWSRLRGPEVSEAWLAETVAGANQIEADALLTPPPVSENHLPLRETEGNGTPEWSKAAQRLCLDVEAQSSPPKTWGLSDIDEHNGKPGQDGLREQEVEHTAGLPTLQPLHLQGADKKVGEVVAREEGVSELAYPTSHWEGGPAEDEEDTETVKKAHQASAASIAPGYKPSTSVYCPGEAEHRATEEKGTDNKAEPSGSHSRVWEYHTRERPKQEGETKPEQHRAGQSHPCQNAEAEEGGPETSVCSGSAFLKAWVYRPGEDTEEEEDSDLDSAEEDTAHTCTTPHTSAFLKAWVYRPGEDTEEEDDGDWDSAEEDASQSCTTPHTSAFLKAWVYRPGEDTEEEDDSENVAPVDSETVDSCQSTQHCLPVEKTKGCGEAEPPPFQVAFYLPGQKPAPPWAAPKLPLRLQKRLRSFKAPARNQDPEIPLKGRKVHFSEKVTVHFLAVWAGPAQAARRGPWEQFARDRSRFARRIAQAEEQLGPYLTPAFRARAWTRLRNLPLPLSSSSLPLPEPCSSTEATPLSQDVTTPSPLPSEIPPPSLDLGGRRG
The test system of test [4] is Rat fibroblasts (CREF). Described as above. The following applies: CREF/GAPDH counter-screens.
Test [5] deals with GAPDH. Described as above. The following applies: CREF/GAPDH counter-screens.
[6] abbreviates: run 1, dose range 1, individual replicate IC50 per panel.
The mark [7] stands for this setting: run 2, dose range 1, individual replicate IC50 per panel.

Calls of active or inactive are those of the source.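 How the source made its calls: active means mean IC50 for reducing PEG3 promoter reporter signal at or below a set limit, with IC50 above the limit in both counter screens; inactive means the rest, including counter screen hits.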 Where only a bound is given, the exact number is not on record here.

Take `C=CCn1c(C)cc(C(=O)COc2ccc(C)nc2[N+](=O)[O-])c1C`: the concentration for half-maximal inhibition (IC50) was 24 µM in test [1]; 1.55 µM in test [2] (setting [6]); 1.26 µM in test [2] (setting [7]); 1.4 µM in test [3]; > 100 µM (inactive) in test [4] (mean of runs); more than 100 µM in test [4] (setting [6]). The IC50 in test [4] (setting [7]) was more than 100 µM; in test [5] (setting [6]) it was 8.8 µM; in test [5] (setting [7]) it was 39.1 µM.

As for `CCN(CC)S(=O)(=O)c1cccc(C(=O)N/N=C(\C)c2ccc(O)cc2O)c1`, the IC50 in test [1] is > 100 µM (inactive); in test [2] (setting [6]) it was 2.77 µM; in test [2] (setting [7]), 1.33 µM; in test [3] it was 2.05 µM; in test [4] (mean of runs), 74.1 µM (inactive); in test [4] (setting [6]) it was more than 100 µM. Further, the IC50 in test [4] (setting [7]) was 48.2 µM; in test [5] (setting [6]), more than 100 µM; in test [5] (setting [7]) it was more than 100 µM.

As to `O=c1c2ccccc2sc2nc(CCl)nn12`, the half-inhibitory concentration (IC50) is 11.2 µM in test [1]; 9.23 µM in test [2] (setting [6]); 9.49 µM in test [2] (setting [7]); 9.36 µM in test [3]; > 100 µM (inactive) in test [4] (mean of runs); more than 100 µM in test [4] (setting [6]). In addition, the IC50 was more than 100 µM in test [4] (setting [7]), 11.9 µM in test [5] (setting [6]) and 10.6 µM in test [5] (setting [7]).

On to `CS(=O)(=O)c1ccc(-c2cn3cc(C(=O)O)ccc3n2)cc1`, for which the IC50 in test [1] is 27.6 µM; in test [2] (setting [6]), 6.91 µM; in test [2] (setting [7]) it was 13.4 µM; in test [3] it was 10.2 µM; in test [4] (mean of runs), 42.9 µM; in test [4] (setting [6]), 42.3 µM. In addition, the 50% inhibitory concentration (IC50) turned out to be 43.4 µM in test [4] (setting [7]), 24.6 µM in test [5] (setting [6]) and 30.5 µM in test [5] (setting [7]).

With `O=C(CCl)N1c2ccccc2Sc2ccc3ccccc3c21`, the half-maximal inhibitory concentration (IC50) in test [1] was 25.1 µM; in test [2] (setting [6]) it was 12.2 µM; in test [2] (setting [7]), 5.18 µM; in test [3], 8.68 µM; in test [4] (mean of runs), 26.3 µM; in test [4] (setting [6]), 24.5 µM. The IC50 in test [4] (setting [7]) amounted to 28.1 µM; in test [5] (setting [6]), 26.7 µM; in test [5] (setting [7]) it was 23.4 µM.

On to `CCc1ccn2cc(-c3ccc4c(c3)OCO4)nc2c1`, for which the concentration for half-maximal inhibition (IC50) in test [1] was 6.32 µM; in test [2] (setting [6]), 1.97 µM; in test [2] (setting [7]) it was 12.4 µM; in test [3] it was 7.2 µM; in test [4] (mean of runs) it was 50.4 µM (inactive); in test [4] (setting [6]) it was 0.748 µM. Moreover, the IC50 was more than 100 µM in test [4] (setting [7]), 3.75 µM in test [5] (setting [6]) and 8.89 µM in test [5] (setting [7]).

Regarding `CCc1ccc(/C=C2\SC(=S)N(CCCC(=O)Nc3cc(C)on3)C2=O)cc1`, the IC50 in test [1] is 9.14 µM; in test [2] (setting [6]) it was 3.86 µM; in test [2] (setting [7]), 3.05 µM; in test [3], 3.46 µM; in test [4] (mean of runs), > 100 µM (inactive); in test [4] (setting [6]), more than 100 µM. The IC50 in test [4] (setting [7]) was more than 100 µM; in test [5] (setting [6]), 7.4 µM; in test [5] (setting [7]), 10.9 µM.

As for `Cc1ccc(C(C[N+](=O)[O-])Sc2ccc(N)cc2)cc1` (centres undefined), the half-inhibitory concentration (IC50) in test [1] was 18.6 µM; in test [2] (setting [6]), 9.59 µM; in test [2] (setting [7]), 6.49 µM; in test [3] it was 8.04 µM; in test [4] (mean of runs) it was 62.8 µM (inactive); in test [4] (setting [6]), 25.6 µM. In addition, the IC50 in test [4] (setting [7]) was more than 100 µM; in test [5] (setting [6]), 21.1 µM; in test [5] (setting [7]), 16.1 µM.

For the compound `CCC(c1nnnn1-c1ccc2c(c1)OCCO2)N1CCC(n2c(=O)[nH]c3ccccc32)CC1` (centres undefined), the concentration for half-maximal inhibition (IC50) in test [1] was 10.8 µM; in test [2] (setting [6]) it was 4.46 µM; in test [2] (setting [7]) it was 10.2 µM; in test [3], 7.33 µM; in test [4] (mean of runs), > 100 µM (inactive); in test [4] (setting [6]), more than 100 µM. For the same compound, the figures for the half-maximal inhibitory concentration (IC50) in test [4] (setting [7]), in test [5] (setting [6]) and in test [5] (setting [7]) were more than 100 µM, 9.08 µM and 12.6 µM, respectively.

For the compound `CCCCC(=O)NC(c1ccccc1)c1ccc2cccnc2c1O` (centres undefined), the IC50 in test [1] was > 100 µM (inactive); in test [2] (setting [6]) it was 2.84 µM; in test [2] (setting [7]) it was more than 100 µM; in test [4] (mean of runs), > 100 µM (inactive); in test [4] (setting [6]), more than 100 µM; in test [4] (setting [7]), more than 100 µM. The IC50 in test [5] (setting [6]) and in test [5] (setting [7]) was more than 100 µM in each case. In addition, the IC50 result in test [3] is “inactive”.

Take `COc1ccc2c(c1)c(=Cc1ccc(N(C)C)cc1)c1cc(-c3ccccc3)[n+](C)n12`: the IC50 in test [1] was 7.04 µM; in test [2] (setting [6]), 3.17 µM; in test [2] (setting [7]) it was 1.37 µM; in test [3], 2.27 µM; in test [4] (mean of runs), 26.9 µM; in test [4] (setting [6]), 24.8 µM. Also, the IC50 in test [4] (setting [7]) is 29.1 µM; in test [5] (setting [6]) it was 6.61 µM; in test [5] (setting [7]) it was 7.46 µM.
